Results published in the NIST ThermoML archive (doi:10.1021/je300603d).

Experiment: mn = molality of the nth substance listed, in mol/kg
Details: 101 kPa, Liquid; for electrical conductivity: Alternating current cell with electrodes; for viscosity: Falling or rolling sphere viscometry; for mass density: Vibrating tube method

F[B-](F)(F)F.[Na+] [sodium tetrafluoroborate] + CCCCn1cc[n+](C)c1.F[B-](F)(F)F
Details	electrical conductivity [S/m]	mass density [kg/m3]	viscosity [mPa·s]
238.15 K, m1 = 0.058	0.00083	–	–
238.15 K, m1 = 0.1159	0.00077	–	–
238.15 K, m1 = 0.1739	0.00071	–	–
258.15 K, m1 = 0.058	0.0211	–	–
258.15 K, m1 = 0.1159	0.0201	–	–
258.15 K, m1 = 0.1739	0.0188	–	–
278.15 K, m1 = 0.0273	–	1218	–
278.15 K, m1 = 0.054	–	1219.4	–
278.15 K, m1 = 0.058	0.1075	1219.2	400.2
278.15 K, m1 = 0.0676	–	1220.7	–
278.15 K, m1 = 0.0903	–	1221.3	–
278.15 K, m1 = 0.1069	–	1222.4	–
278.15 K, m1 = 0.1159	0.103	1222.8	421.4
278.15 K, m1 = 0.1377	–	1224.3	–
278.15 K, m1 = 0.1739	0.0986	1226.2	454.8
288.15 K, m1 = 0.0273	–	1210.7	–
288.15 K, m1 = 0.054	–	1212.2	–
288.15 K, m1 = 0.058	–	1212.1	204.4
288.15 K, m1 = 0.0676	–	1213.4	–
288.15 K, m1 = 0.0903	–	1214	–
288.15 K, m1 = 0.1069	–	1215.1	–
288.15 K, m1 = 0.1159	–	1215.5	215.5
288.15 K, m1 = 0.1377	–	1217	–
288.15 K, m1 = 0.1739	–	1218.9	232.6
298.15 K, m1 = 0.0273	–	1203.5	–
298.15 K, m1 = 0.054	–	1204.9	–
298.15 K, m1 = 0.058	0.341	1205	115.5
298.15 K, m1 = 0.0676	–	1206.1	–
298.15 K, m1 = 0.0903	–	1206.8	–
298.15 K, m1 = 0.1069	–	1207.9	–
298.15 K, m1 = 0.1159	0.328	1208.3	121.4
298.15 K, m1 = 0.1377	–	1209.8	–
298.15 K, m1 = 0.1739	0.316	1211.6	130.4
308.15 K, m1 = 0.0273	–	1196.3	–
308.15 K, m1 = 0.054	–	1197.7	–
308.15 K, m1 = 0.058	–	1198	70.66
308.15 K, m1 = 0.0676	–	1199	–
308.15 K, m1 = 0.0903	–	1199.6	–
308.15 K, m1 = 0.1069	–	1200.7	–
308.15 K, m1 = 0.1159	–	1201.1	74.52
308.15 K, m1 = 0.1377	–	1202.6	–
308.15 K, m1 = 0.1739	–	1204.4	79.37
318.15 K, m1 = 0.0273	–	1189.2	–
318.15 K, m1 = 0.054	–	1190.7	–
318.15 K, m1 = 0.058	0.794	1190.9	46.1
318.15 K, m1 = 0.0676	–	1191.9	–
318.15 K, m1 = 0.0903	–	1192.5	–
318.15 K, m1 = 0.1069	–	1193.6	–
318.15 K, m1 = 0.1159	0.769	1194	48.94
318.15 K, m1 = 0.1377	–	1195.5	–
318.15 K, m1 = 0.1739	0.745	1197.3	51.72
328.15 K, m1 = 0.0273	–	1182.2	–
328.15 K, m1 = 0.054	–	1183.6	–
328.15 K, m1 = 0.058	–	1183.9	31.69
328.15 K, m1 = 0.0676	–	1184.9	–
328.15 K, m1 = 0.0903	–	1185.5	–
328.15 K, m1 = 0.1069	–	1186.6	–
328.15 K, m1 = 0.1159	–	1187	33.98
328.15 K, m1 = 0.1377	–	1188.4	–
328.15 K, m1 = 0.1739	–	1190.3	35.69
338.15 K, m1 = 0.0273	–	1175.3	–
338.15 K, m1 = 0.054	–	1177	–
338.15 K, m1 = 0.058	1.5	1176.8	22.75
338.15 K, m1 = 0.0676	–	1177.9	–
338.15 K, m1 = 0.0903	–	1178.6	–
338.15 K, m1 = 0.1069	–	1179.6	–
338.15 K, m1 = 0.1159	1.464	1180	23.85
338.15 K, m1 = 0.1377	–	1181.5	–
338.15 K, m1 = 0.1739	1.425	1183.3	23.94
348.15 K, m1 = 0.0273	–	1168.4	–
348.15 K, m1 = 0.054	–	1169.8	–
348.15 K, m1 = 0.058	–	1169.8	16.93
348.15 K, m1 = 0.0676	–	1171	–
348.15 K, m1 = 0.0903	–	1171.7	–
348.15 K, m1 = 0.1069	–	1172.7	–
348.15 K, m1 = 0.1159	–	1173.1	17.63
348.15 K, m1 = 0.1377	–	1174.6	–
348.15 K, m1 = 0.1739	–	1176.4	17.97
358.15 K, m1 = 0.0273	–	1161.6	–
358.15 K, m1 = 0.054	–	1163	–
358.15 K, m1 = 0.058	2.47	1162.7	13
358.15 K, m1 = 0.0676	–	1164.2	–
358.15 K, m1 = 0.0903	–	1164.8	–
358.15 K, m1 = 0.1069	–	1165.9	–
358.15 K, m1 = 0.1159	2.4	1166.3	13.53
358.15 K, m1 = 0.1377	–	1167.7	–
358.15 K, m1 = 0.1739	2.35	1169.6	14.01
378.15 K, m1 = 0.058	3.66	–	–
378.15 K, m1 = 0.1159	3.57	–	–
378.15 K, m1 = 0.1739	3.5	–	–
398.15 K, m1 = 0.058	5.04	–	–
398.15 K, m1 = 0.1159	4.93	–	–
398.15 K, m1 = 0.1739	4.84	–	–
418.15 K, m1 = 0.058	6.58	–	–
418.15 K, m1 = 0.1159	6.45	–	–
418.15 K, m1 = 0.1739	6.35	–	–
438.15 K, m1 = 0.058	8.24	–	–
438.15 K, m1 = 0.1159	8.11	–	–
438.15 K, m1 = 0.1739	7.98	–	–
458.15 K, m1 = 0.058	10	–	–
458.15 K, m1 = 0.1159	9.85	–	–
458.15 K, m1 = 0.1739	9.7	–	–
